pEC50: −log10 of the molar value. Like-named read-outs stand apart in the source and are kept apart here.
Tested on: RS4;11 cells
Experiment: RS4;11 cell viability assay (CellTiter Glo);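 further: acute lymphoblastic leukemia line RS4,11, EC50 derived from percentage of viable cells after treatment relative to untreated controls, cell killing taken as a measure of Bcl-2 inhibition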
Type: cell-based, human
Conditions: Homo sapiens, read-out: RS4
[1] = RS4-11, 48 h, 50,000 cells per well, 10% human serum, 48 hours, 11 EC50 Values

Procedure: The acute lymphoblastic leukemia (ALL) cell line RS4;11 was used as the primary human cell line to assess the cellular activity of Bcl-2 selective agents in vitro and their efficacy in vivo.
Cell cytotoxicity EC50 values were assessed using CellTiter Glo (Promega) according to the manufacturer's recommendations. The EC50 values were determined as a percentage of viable cells following treatment compared to the untreated control cells.

Compound	pEC50 [1]	pEC50 (RS4-11, Table 5, direct comparison Z=N with corresponding analogs Z=C, 11 EC50)
CCOC(=O)N1CCN(c2ccc(S(=O)(=O)NC(=O)c3ccc(N4CCN(CC5=C(c6ccc(Cl)cc6)CC(C)(C)CC5)CC4)cc3Oc3cnc4[nH]ccc4c3)cc2[N+](=O)[O-])CC1 [Example 222, ethyl 4-(4-{[4-(4-{[2-(4-chlorophenyl)-4,4-dimethylcyclohex-1-en-1-yl]methyl}piperazin-1-yl)-2-(1H-pyrrolo[2,3-b]pyridin-5-yloxy)benzoyl]sulfamoyl}-2-nitrophenyl)piperazine-1-carboxylate]	< 6.00	
CC1(C)CCC(CN2CCN(c3ccc(C(=O)NS(=O)(=O)c4ccc(N[C@H]5CCCN(C6CCOCC6)C5)c([N+](=O)[O-])c4)c(Oc4cnc5[nH]ccc5c4)c3)CC2)=C(c2ccc(Cl)cc2)C1 [Example 105, 4-(4-{[2-(4-chlorophenyl)-4,4-dimethylcyclohex-1-en-1-yl]methyl}piperazin-1-yl)-N-[(3-nitro-4-{[(3S)-1-tetrahydro-2H-pyran-4-ylpiperidin-3-yl]amino}phenyl)sulfonyl]-2-(1H-pyrrolo[2,3-b]pyridin-5-yloxy)benzamide]	7.27	
CC1(C)CCC(CN2CCN(c3ccc(C(=O)NS(=O)(=O)c4ccc(NC[C@H]5CCCOC5)c([N+](=O)[O-])c4)c(Oc4ccc5[nH]ccc5c4)c3)CC2)=C(c2ccc(Cl)cc2)C1 [Example 22, 4-(4-{[2-(4-chlorophenyl)-4,4-dimethylcyclohex-1-en-1-yl]methyl}piperazin-1-yl)-2-(1H-indol-5-yloxy)-N-[(3-nitro-4-{[(3R)-tetrahydro-2H-pyran-3-ylmethyl]amino}phenyl)sulfonyl]benzamide]	7.07	7.07

The next compounds have a higher pEC50 [1] than those just listed; values first:

pEC50 [1]	pEC50 (RS4-11, Table 5, direct comparison Z=N with corresponding analogs Z=C, 11 EC50)	Compound
7.38		CC1(C)CCC(CN2CCN(c3ccc(C(=O)NS(=O)(=O)c4ccc(OC[C@@H]5COCCO5)c([N+](=O)[O-])c4)c(Oc4cnc5[nH]ccc5c4)c3)CC2)=C(c2ccc(Cl)cc2)C1 [Example 28, 4-(4-{[2-(4-chlorophenyl)-4,4-dimethylcyclohex-1-en-1-yl]methyl}piperazin-1-yl)-N-({4-[(2S)-1,4-dioxan-2-ylmethoxy]-3-nitrophenyl}sulfonyl)-2-(1H-pyrrolo[2,3-b]pyridin-5-yloxy)benzamide]
7.76		CC1(C)CCC(CN2CCN(c3ccc(C(=O)NS(=O)(=O)c4ccc(NC5CCN(C(C)(C)C)CC5)c(S(=O)(=O)C(F)(F)F)c4)c(Oc4cnc5[nH]ccc5c4)c3)CC2)=C(c2ccc(Cl)cc2)C1 [Example 240, N-({4-[(1-tert-butylpiperidin-4-yl)amino]-3-[(trifluoromethyl)sulfonyl]phenyl}sulfonyl)-4-(4-{[2-(4-chlorophenyl)-4,4-dimethylcyclohex-1-en-1-yl]methyl}piperazin-1-yl)-2-(1H-pyrrolo[2,3-b]pyridin-5-yloxy)benzamide]
7.79		CC1(C)CCC(CN2CCN(c3ccc(C(=O)NS(=O)(=O)c4ccc(N[C@@H]5CCN(CC#N)C5)c([N+](=O)[O-])c4)c(Oc4cnc5[nH]ccc5c4)c3)CC2)=C(c2ccc(Cl)cc2)C1 [Example 262, 4-(4-{[2-(4-chlorophenyl)-4,4-dimethylcyclohex-1-en-1-yl]methyl}piperazin-1-yl)-N-[(4-{[(3R)-1-(cyanomethyl)pyrrolidin-3-yl]amino}-3-nitrophenyl)sulfonyl]-2-(1H-pyrrolo[2,3-b]pyridin-5-yloxy)benzamide]
8.00		COCC1(C)CCC(c2ccc(Cl)cc2)=C(CN2CCN(c3ccc(C(=O)NS(=O)(=O)c4ccc(NCC5CCOCC5)c([N+](=O)[O-])c4)c(Oc4cnc5[nH]ccc5c4)c3)CC2)C1 (centres unmarked) [Example 360, 4-(4-{[2-(4-chlorophenyl)-5-(methoxymethyl)-5-methylcyclohex-1-en-1-yl]methyl}piperazin-1-yl)-N-({3-nitro-4-[(tetrahydro-2H-pyran-4-ylmethyl)amino]phenyl}sulfonyl)-2-(1H-pyrrolo[2,3-b]pyridin-5-yloxy)benzamide]

— patent US20240043404A1 (AbbVie Inc., priority 2009, published 2024)
